{"source": "patent US20250032411A1", "about": "“A SELF-EMULSIFYING DRUG DELIVERY SYSTEM (SEDDS) OF PUNICIC ACID COMBINED WITH NEUROPROTECTIVE NATURAL PRODUCTS TO DELAY ONSET, PREVENT, OR REVERSE NEURODEGENERATIVE DISEASE” (TAHIRO INC., priority 2021, published 2025)", "key": {"alfa-synuclein": {"biological_target": "alfa-synuclein (Homo sapiens, UniProt P37840)", "settings": "in vitro; cited from earlier work"}, "[1]": {"system": "mThyl-human alpha-synuclein transgenic mouse model", "settings": "1 g/kg/day interperitoneally; cited from earlier work"}, "[2]": {"system": "Parkinson's disease patients", "settings": "18 g per day oral, cited from earlier work"}, "[3]": {"system": "Drosophila model of Parkinson's Disease", "settings": "fly feeding, 75 mM in medium; cited from earlier work"}, "old mice": {"system": "old mice", "settings": "chronic low dose, 3 mg per kg bodyweight per day; cited from earlier work"}, "C57BL6 mice": {"system": "C57BL6 mice", "assay": "Y-maze Test of MK-801 induced cognitive decline", "assay_type": "in vivo", "settings": "N=12 per group, random = 33%", "method": "The effect of pomegranate-CBD based formulation with a 12:1 pomegranate to CBD ratio on cognitive decline was further evaluated in C57BL6 mice. The cognitive decline of the mice was achieved using MK-801 and the cognitive ability of the mice were tested using the Y-maze Test. The experiment included three groups of mice, neutral control (N=12), MK-801 (N=12), MK-801 Pomegranate-CBD treated (N=12)."}}}
{"smiles": "OC[C@@H](O)[C@@H](O)[C@H](O)[C@H](O)CO", "note": "[Mannitol]", "values": [{"measurement": "aggregation process of alfa-synuclein", "setting": "alfa-synuclein", "value": "interfere with the aggregation process of alfa-synuclein"}, {"measurement": "alpha-synuclein accumulation in brain regions", "setting": "[1]", "value": "a decrease in alpha-synuclein accumulation was detected in several brain regions"}, {"measurement": "patients who tolerate the maximal dose", "setting": "[2]; 36 weeks", "value": "only two thirds of patients tolerate this maximal dose"}, {"measurement": "safety of long-term use", "setting": "[2]", "value": "safe"}, {"measurement": "alpha-synuclein aggregates in the brains", "setting": "[3]", "value": "reduced the amount of alpha-synuclein aggregates"}, {"measurement": "behavioral defects", "setting": "[3]", "value": "dramatically corrected behavioral defects"}]}
{"smiles": "CCCCCc1cc(O)c2c(c1)OC(C)(C)[C@@H]1CCC(C)=C[C@@H]21", "note": "[THC, Δ9-tetrahydrocannabinol]", "values": [{"measurement": "cognitive function", "setting": "old mice", "value": "restores cognitive function in old mice"}]}
{"smiles": "C[C@]12N[C@H](Cc3ccccc31)c1ccccc12", "note": "[MK-801]", "values": [{"measurement": "% of entries in the novel arm of the Y-maze", "setting": "C57BL6 mice", "value": 31.8, "unit": "%"}]}
